{
  "source": "patent US8178669B2",
  "about": "“Fluorescent probe for peroxynitrite” (The University of Tokyo, priority 2005, dated 2012)",
  "key": {"[1]": {"assay": "Reaction of Compound 4 and various reactive oxygen species: peroxynitrite", "protocol": "(§1) A 10 μmol/L solution of Compound 4 was prepared by diluting a 20 mmol/L solution of Compound 4 in DMF with a 100 mmol/L phosphate buffer (pH 7.4), and used for the test. The prepared solution was treated under the following conditions for 3 minutes (except for (f), for which treatment time was 30 minutes).\n(a) Peroxynitrite was added to make a final concentration of 10 μmol/L.\n(§2) After the reaction, change of fluorescence spectrum under each condition was measured to compare reactivities of the compound with (#2) peroxynitrite, (#3) hydrogen peroxide, (#4) singlet oxygen, (#5) hydroxyl radical, (#6) hypochlorite ion, and (#7) nitrogen monoxide."}, "[2]": {"assay": "Reaction of Compound 4 and various reactive oxygen species: hypochlorite ion", "settings": "10 μmol/L Compound 4, pH 7.4; hypochlorite ions 10 μmol/L, 3 minutes", "protocol": "as §1\n(e) Hypochlorite ions were added to make a final concentration of 10 μmol/L.\nas §2"}, "[3]": {"assay": "Reaction of Compound 4 and various reactive oxygen species: hydroxyl radical", "settings": "10 μmol/L Compound 4, pH 7.4; hydrogen peroxide 1 mmol/L and iron(II) sulfate 50 μmol/L, 3 minutes", "protocol": "as §1\n(d) Hydrogen peroxide and iron(II) sulfate were added to make final concentrations of 1 mmol/L and 50 μmol/L, respectively.\nas §2"}, "[4]": {"assay": "Reaction of Compound 4 and various reactive oxygen species: singlet oxygen", "settings": "10 μmol/L Compound 4, pH 7.4; hydrogen peroxide 1 mmol/L and hypochlorite ions 100 μmol/L, 3 minutes", "protocol": "as §1\n(c) Hydrogen peroxide and hypochlorite ions were added to make final concentrations of 1 mmol/L and 100 μmol/L, respectively.\nas §2"}, "[5]": {"assay": "Reaction of Compound 4 and various reactive oxygen species: hydrogen peroxide", "settings": "10 μmol/L Compound 4, pH 7.4; hydrogen peroxide 1 mmol/L, 3 minutes", "protocol": "as §1\n(b) Hydrogen peroxide was added to make a final concentration of 1 mmol/L.\nas §2"}, "HeLa cells": {"tested_on": "HeLa cells", "assay": "Imaging of peroxynitrite using Compound 4 in HeLa cells", "type": "cell-based", "settings": "HeLa cells loaded with 2 μmol/L Compound 4, 20 minutes; peroxynitrite 10 μmol/L; excitation 470 to 490 nm, emission 510 to 550 nm", "protocol": "HeLa cells were precultured in Dulbecco's modified Eagle's medium (DMEM) supplemented with 10% (v/v) fetal bovine serum, penicillin (100 units/mL), and streptomycin (100 μg/mL) in a 5% CO2 incubator. These HeLa cells were inoculated on a 35 mm glass bottom dish (MatTek Corporation), and further cultured overnight in DMEM. After 24 hours, the medium was removed, and the HeLa cells were washed with Hank's balanced salt solution (HBSS, 2×1 mL). The HeLa cells were added with 2 mL of 2 μmol/L solution of Compound 4 in HBSS (containing 0.01% DMF and 0.01% Cremophor EL (SIGMA) as auxiliary solvents), and incubated at room temperature for 20 minutes. Then, the HeLa cells were washed with HBSS (2×1 mL). Fluorescence images before addition of peroxynitrite and after addition of peroxynitrite at a final concentration of 10 μmol/L were photographed at an excitation wavelength of 470 to 490 nm and fluorescence emission wavelength of 510 to 550 nm.\nAmong the photographs, (A) is a differential interference microscope image of HeLa cells loaded with Compound 4, (B) is a pseudo color fluorescence image of fluorescence intensity before addition of peroxynitrite, (C) is a pseudo color fluorescence image of fluorescence intensity after addition of peroxynitrite, and (D) is a fused image of (A) and (B)."}, "[6]": {"assay": "Reaction of Compound 4 and peroxynitrite (fluorescence spectrum)", "settings": "10 μmol/L Compound 4, 100 mmol/L phosphate buffer pH 7.4; peroxynitrite 1-50 μmol/L; after 60 seconds; excitation 505 nm", "protocol": "A 10 μmol/L solution of Compound 4 was prepared by diluting a 20 mmol/L solution of Compound 4 in DMF with a 100 mmol/L phosphate buffer (pH 7.4). The solution was added with peroxynitrite solutions of 2 mmol/L, 5 mmol/L, 10 mmol/L, 20 mmol/L and 80 mmol/L at peroxynitrite final concentrations of 1, 2, 4, 5, 10, 20 or 50 μmol/L with stirring, and after 60 seconds, fluorescence spectrum was measured (excitation wavelength: 505 nm)."}, "[7]": {"assay": "Reaction of Compound 4 and various reactive oxygen species: nitrogen monoxide", "settings": "10 μmol/L Compound 4, pH 7.4; NOC-13 100 μmol/L, 30 minutes", "protocol": "as §1\n(f) NOC-13 (nitrogen monoxide discharging agent, Dojindo Laboratory) was added to make a final concentration of 100 μmol/L.\nas §2"}},
  "data": [
    {"compound": "CC1=C(C#N)C(C)=[N+]2C1=C(c1ccc(O)cc1OCC(=O)O)c1c(C)c(C#N)c(C)n1[B-]2(F)F", "note": "[Compound 4, 2,6-dicyano-8-(4-hydroxy-2-carboxymethoxyphenyl)-1,3,5,7-tetramethyl-4,4-difluoro-4-bora-3a,4a-diaza-s-indacene]", "values": [
      {"measurement": "fluorescence after addition of peroxynitrite", "setting": "[1]; 10 μmol/L Compound 4, pH 7.4, peroxynitrite 10 μmol/L, 3 minutes", "result": "emitted intense fluorescence"},
      {"measurement": "selectivity to peroxynitrite over other reactive oxygen species", "setting": "[1]; compared with hydrogen peroxide, singlet oxygen, hydroxyl radical, hypochlorite ion, nitrogen monoxide", "result": "high selectivity to peroxynitrite"},
      {"measurement": "fluorescence after addition of hypochlorite ion", "setting": "[2]", "result": "did not emit fluorescence at all"},
      {"measurement": "fluorescence after addition of hydroxyl radical", "setting": "[3]", "result": "did not emit fluorescence at all"},
      {"measurement": "fluorescence after addition of singlet oxygen", "setting": "[4]", "result": "did not emit fluorescence at all"},
      {"measurement": "fluorescence after addition of hydrogen peroxide", "setting": "[5]", "result": "did not emit fluorescence at all"},
      {"measurement": "fluorescence imaging of peroxynitrite in cells", "setting": "HeLa cells", "result": "fluorescence imaging of peroxynitrite was performable"},
      {"measurement": "change of fluorescence intensity on addition of peroxynitrite", "setting": "[6]", "result": "peroxynitrite addition amount-dependent increase in fluorescence intensity was observed"},
      {"measurement": "fluorescence after addition of nitrogen monoxide", "setting": "[7]", "result": "did not emit fluorescence at all"}
    ]}
  ]
}
